Measured values reported in patent publication US9512118B2, “Crystal of fused heterocyclic compound” (TAKEDA PHARMACEUTICAL COMPANY LIMITED, priority 2011, dated 2016).
Values after ≈ are worked out from the molar mass of the structure shown. Read-outs that look alike come from different tables or passages of the source.

How the values were obtained:
[1] = Study of crystallization from various solvents (solubility at 55° C. and crystal form obtained); type: physicochemical; conditions: for solubility: 55 °C, organic solvent or mixture, thermodynamic from solid; for crystal form: dissolved at 55° C., cooled to 0-5° C., stirred 8 hr
Method: This solution was filtered through a filter with 0.22 μm pore size, and cooled to 0-5° C. with stirring. The mixture was stirred for 8 hr under cooling at 0-5° C.

[2] = room temperature
From the text: After stirring for one week, and after stirring for 2 weeks, the crystals of 1-ethyl-7-methyl-3-{4-[(3-methyl-3H-imidazo[4,5-b]pyridin-2-yl)oxy]phenyl}-1,3-dihydro-2H-imidazo[4,5-b]pyridin-2-one formed were collected by filtration, and the crystal form of the crystalline products was confirmed.

[3] = 80° C., 1 week, sealed glass bottle
[4] = 80° C., 2 weeks, sealed glass bottle

CCn1c(=O)n(-c2ccc(Oc3nc4cccnc4n3C)cc2)c2nccc(C)c21 [Form G, 1-ethyl-7-methyl-3-{4-[(3-methyl-3H-imidazo[4,5-b]pyridin-2-yl)oxy]phenyl}-1,3-dihydro-2H-imidazo[4,5-b]pyridin-2-one]
appearance [3]: no change
area percentage (%) of HPLC peak area of main form [3]: 99.7%
crystal form [3]: Form G
appearance [4]: no change
area percentage (%) of HPLC peak area of main form [4]: 99.6%
crystal form [4]: Form G
appearance (prestorage): white crystalline
area percentage (%) of HPLC peak area of main form (prestorage): 99.7%
crystal form (prestorage): Form G

CCn1c(=O)n(-c2ccc(Oc3nc4cccnc4n3C)cc2)c2nccc(C)c21 [Form A, 1-ethyl-7-methyl-3-{4-[(3-methyl-3H-imidazo[4,5-b]pyridin-2-yl)oxy]phenyl}-1,3-dihydro-2H-imidazo[4,5-b]pyridin-2-one]
solubility ([1]; solvent 2-propanol): < 2700 µg/mL
solubility ([1]; solvent acetone): 6500 µg/mL (≈ 16.2 mM)
solubility ([1]; solvent acetonitrile): 8100 µg/mL (≈ 20.2 mM)
solubility ([1]; solvent chloroform): > 200000 µg/mL
solubility ([1]; solvent ethanol): 2600 µg/mL (≈ 6.49 mM)
solubility ([1]; solvent ethyl acetate): 3400 µg/mL (≈ 8.49 mM)
solubility ([1]; solvent methanol): 5600 µg/mL (≈ 14 mM)
solubility ([1]; solvent methylethylketone): 6800 µg/mL (≈ 17 mM)
solubility ([1]; solvent tetrahydrofuran): 26000 µg/mL (≈ 64.9 mM)
solubility ([1]; solvent toluene): 5200 µg/mL (≈ 13 mM)
solubility ([1]; solvent trifluoroethanol): > 200000 µg/mL
crystal form ([1]; crystallized from 2-propanol): Form A
crystal form ([1]; crystallized from acetone): Form A
crystal form ([1]; crystallized from acetonitrile): Form B
crystal form ([1]; crystallized from chloroform): Form A
crystal form ([1]; crystallized from ethanol): Form A
crystal form ([1]; crystallized from ethyl acetate): Form A
crystal form ([1]; crystallized from methanol): Form A
crystal form ([1]; crystallized from methylethylketone): Form A
crystal form ([1]; crystallized from tetrahydrofuran): Form A
crystal form ([1]; crystallized from toluene): Form G
crystal form ([1]; crystallized from trifluoroethanol): Form D
crystal form 1 week later ([2]; suspended in 1-butanol): Form A
crystal form 2 weeks later ([2]; suspended in 1-butanol): Form A
crystal form 1 week later ([2]; suspended in acetone): Form G
crystal form 2 weeks later ([2]; suspended in acetone): Form G
crystal form 1 week later ([2]; suspended in ethyl acetate): Form A + Form G
crystal form 2 weeks later ([2]; suspended in ethyl acetate): Form G
crystal form 1 week later ([2]; suspended in isopropyl alcohol): Form A
crystal form 2 weeks later ([2]; suspended in isopropyl alcohol): Form A
crystal form 1 week later ([2]; suspended in methanol): Form G
crystal form 2 weeks later ([2]; suspended in methanol): Form G
crystal form 1 week later ([2]; suspended in methylethylketone): Form G
crystal form 2 weeks later ([2]; suspended in methylethylketone): Form G
crystal form 1 week later ([2]; suspended in tetrahydrofuran): Form G
crystal form 2 weeks later ([2]; suspended in tetrahydrofuran): Form G
crystal form 1 week later ([2]; suspended in toluene): Form G
crystal form 2 weeks later ([2]; suspended in toluene): Form G
